Literature values in PMC11089247 (Frontiers in Pharmacology, 2024).
Where a name gives a salt, the structure may show the parent alone.

Columns and labels:
CYP2C19 = conditions: substrate fluoxetine, ref Fang et al., 2017
CYP2C9 = tested on: CYP2C9; design: method as in Ji et al., 2015; conditions: substrate fluoxetine, ref Ji et al., 2015

CNCCC(Oc1ccc(C(F)(F)F)cc1)c1ccccc1 (centres unmarked) [fluoxetine, Fluoxetine hydrochloride]
Km (CYP2C19): 97.6 µM
Km (CYP2C9): 31.7 µM
